# According to publication PMC8448983 (European journal of medicinal chemistry, 2021):
# Where two headings read alike, the source gives them in different places. Marks after values point to notes of the source that are not given here.
# What was measured:
# [1] = target: T1, human A3 adenosine receptor (Homo sapiens, UniProt P0DMS8); test: Radioligand binding, HEK293 cells expressing human A3 receptor; details: for activity class (active / inactive) in SAR and selectivity analysis / receptor selectivity class: compounds 33–52, NIH binding data; for Ki: read-out: Ki, A3 AR, [125I]-N6-(4-amino-3-iodobenzyl)adenosine-5′-N-methyluronamide; for Ki / percent of inhibition, A3 AR: NIH laboratory, HEK293; for percent of inhibition, A3 AR: 10 μM compound, agonist radioligand
# T1 sequence (P0DMS8 1-318): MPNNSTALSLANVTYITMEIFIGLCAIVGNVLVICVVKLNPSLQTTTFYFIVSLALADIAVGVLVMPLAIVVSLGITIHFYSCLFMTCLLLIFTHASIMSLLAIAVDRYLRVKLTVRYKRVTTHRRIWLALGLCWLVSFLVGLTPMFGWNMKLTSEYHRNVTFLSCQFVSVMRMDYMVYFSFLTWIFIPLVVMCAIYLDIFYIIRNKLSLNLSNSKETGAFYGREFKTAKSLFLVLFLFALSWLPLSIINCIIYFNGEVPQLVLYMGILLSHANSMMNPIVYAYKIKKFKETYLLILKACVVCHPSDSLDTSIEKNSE
# [2] = target: T2, human A2A adenosine receptor (Homo sapiens, UniProt P29274); test: Radioligand binding, HEK293 cells expressing human A2A receptor; details: for percent of inhibition, A2A AR: 10 μM compound, NIH laboratory, agonist radioligand
# [3] = target: T3, human A1 adenosine receptor (Homo sapiens, UniProt P30542); test: Radioligand binding, HEK293 cells expressing human A1 receptor; details: for percent of inhibition, A1 AR: 10 μM compound
# T3 sequence (P30542 1-326): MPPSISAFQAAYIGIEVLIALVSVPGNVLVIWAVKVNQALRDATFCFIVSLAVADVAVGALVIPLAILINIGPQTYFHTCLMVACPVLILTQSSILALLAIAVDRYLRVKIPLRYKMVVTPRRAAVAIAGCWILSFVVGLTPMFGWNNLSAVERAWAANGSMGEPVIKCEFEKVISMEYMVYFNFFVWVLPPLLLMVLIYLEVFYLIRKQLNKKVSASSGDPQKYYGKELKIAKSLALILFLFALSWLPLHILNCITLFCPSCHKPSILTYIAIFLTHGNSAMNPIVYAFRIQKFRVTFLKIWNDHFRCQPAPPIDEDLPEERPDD
# human blood platelets = test: ADP-induced platelet aggregation in platelet-rich plasma; format: cell-based; details: 10 μM ADP, mean ± SD, n = 6–9
# [4] = target: T4, human A2B adenosine receptor (Homo sapiens, UniProt P29275); details: USEF, HEK-A2B membranes, 25 nM [3H]-DPCPX; for percent of inhibition, A2B AR: 10 μM compound
# T4 sequence (P29275 1-332): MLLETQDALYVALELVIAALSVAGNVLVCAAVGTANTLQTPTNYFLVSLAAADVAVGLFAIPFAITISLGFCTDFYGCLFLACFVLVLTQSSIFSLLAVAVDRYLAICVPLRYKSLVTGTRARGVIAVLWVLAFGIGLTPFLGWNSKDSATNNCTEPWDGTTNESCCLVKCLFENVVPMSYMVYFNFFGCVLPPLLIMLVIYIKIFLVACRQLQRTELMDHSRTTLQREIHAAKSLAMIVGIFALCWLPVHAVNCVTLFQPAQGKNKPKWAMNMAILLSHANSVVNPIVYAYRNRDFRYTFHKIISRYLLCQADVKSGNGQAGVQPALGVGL
# [5] = target: T2, human A2A adenosine receptor; details: 10 μM compound; USEF; HeLa-A2A membranes; 3 nM [3H]-ZM241385
# [6] = target: T1, human A3 adenosine receptor; details: for percent of inhibition, A3 AR: 10 μM compound; for percent of inhibition, A3 AR / Ki: USEF, HeLa-A3 membranes, 10 nM [3H]-NECA; for activity class (active / inactive) in selectivity analysis / receptor selectivity class: N6 carborane derivatives, USEF binding data; for Ki: read-out: Ki, A3 AR
# [7] = target: T3, human A1 adenosine receptor; details: 10 μM compound; USEF; CHO-A1 membranes; 1 nM [3H]-DPCPX
# human A3 receptor = target: T5, human A3 receptor (Homo sapiens, UniProt P0DMS8); test: Functional cAMP assay in CHO-A3 cells; format: cell-based; details: for KB (antagonist mode; functional character at A3): inhibition of NECA (0.1 μM) effect on cAMP; for % Emax: maximal agonist effect; for EC50: read-out: EC50 (cAMP), agonist mode
# T5 sequence (P0DMS8 1-318): T1 sequence (P0DMS8 1-318)
# [8] = NIH laboratory, HEK293, [3H]-N6-R-phenylisopropyladenosine
# T2 sequence (P29274 whole entry): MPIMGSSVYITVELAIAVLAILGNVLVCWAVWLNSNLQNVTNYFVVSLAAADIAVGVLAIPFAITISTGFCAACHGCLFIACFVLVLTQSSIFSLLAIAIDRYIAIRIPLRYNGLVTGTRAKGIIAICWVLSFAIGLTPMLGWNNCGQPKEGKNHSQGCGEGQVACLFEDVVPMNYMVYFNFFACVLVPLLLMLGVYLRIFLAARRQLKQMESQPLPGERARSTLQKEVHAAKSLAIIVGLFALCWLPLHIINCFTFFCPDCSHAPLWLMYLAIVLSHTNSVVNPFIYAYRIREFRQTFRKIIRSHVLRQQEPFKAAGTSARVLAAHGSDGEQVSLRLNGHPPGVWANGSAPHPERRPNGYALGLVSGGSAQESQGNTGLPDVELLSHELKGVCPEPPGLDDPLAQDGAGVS
Molecule,activity class (active / inactive) in SAR and selectivity analysis [1],receptor selectivity class [1],"percent of inhibition, A2A AR [2] [%]","percent of inhibition, A1 AR [3, 8] [%]","area under the aggregation curve, ADP-induced platelet aggregation (human blood platelets; 10 μM compound) [arbitrary units]","area under the aggregation curve, ADP-induced platelet aggregation (human blood platelets; 50 μM compound) [arbitrary units]",also measured
"2-Ethynyl-(1,12-dicarba-closo-dodecaboran-1-yl)adenosine [Compound 41]",active,not selective,,,,,"Ki [1]: 206 ± 31 nM; Ki ([2]; read-out: Ki, A2A AR, NIH laboratory, [3H]-2-[p-(2-carboxyethyl)phenyl-ethylamino]-5′-N-ethylcarboxamidoadenosine): 3070 ± 530 nM; Ki ([3]; read-out: Ki, A1 AR, NIH laboratory, HEK293, [3H]-N6-R-phenylisopropyladenosine): 2870 ± 1690 nM"
"2-ethyl-(1,12-dicarba-closo-dodecaboran-2-yl)arabinoadenosine [Compound 49]",,,12 ± 14,27 ± 9,,,"percent of inhibition, A3 AR [1]: 25 ± 8%"
"2-ethynyl-(1,12-dicarba-closo-dodecaboran-2-yl) arabinoadenosine [Compound 47]",active,A3 selective,17 ± 2.7,15 ± 1,,,Ki [1]: 4390 ± 2020 nM
"2′-O-(1,12-dicarba-closo-dodecaboran-1-yl)propyleneoxymethyl]-adenosine [Compound 37]",,,7 ± 2,6 ± 10,661.1 ± 61.3,616.0 ± 24.7,"percent of inhibition, A3 AR [1]: 19 ± 14%"
"8-[2-(1,12-dicarba-closo-dodecaboran-1-yl)ethyl]-adenosine [Compound 35]",inactive,,18 ± 4,16 ± 7,665.7 ± 86.8,682.3 ± 17.4,"percent of inhibition, A3 AR [1]: 9 ± 13%"
"8-[2-(1,12-dicarba-closo-dodecaboran-1-yl)ethynyl] adenosine [Compound 33]",inactive,,17.1 ± 8,29 ± 7,,,"percent of inhibition, A3 AR [1]: 48 ± 12%"
"8-[2-(1,12-dicarba-closo-dodecaboran-1-yl)ethynyl]-2′-deoxyadenosine [Compound 43]",inactive,,10 ± 5,6 ± 6,,,"percent of inhibition, A3 AR [1]: 1 ± 8%"
"Nc1ncnc2c1nc(C#Cc1ccccc1)n2[C@@H]1O[C@H](CO)[C@@H](O)[C@H]1O [Compound 34, 8-(2-phenylethynyl)adenosine]",active,A3 selective,,,,,"inhibition at 10 µM ([3]; read-out: percent of inhibition, A1 AR): 11 ± 3%"
"Nc1ncnc2c1nc(CCc1ccccc1)n2[C@@H]1O[C@H](CO)[C@@H](O)[C@H]1O [Compound 36, 8-(2-phenylethyl)adenosine]",inactive,,,,,,
"Nc1nc(C#Cc2ccccc2)nc2c1ncn2[C@@H]1O[C@H](CO)[C@@H](O)[C@H]1O [Compound 42, 2-Phenylethynyladenosine]",active,not selective,,,,,
Nc1ncnc2c1nc(C#Cc1ccccc1)n2[C@H]1C[C@H](O)[C@@H](CO)O1 [Compound 44],active,not selective,,,,,
Nc1nc(CCc2ccccc2)nc2c1ncn2[C@@H]1O[C@H](CO)[C@@H](O)[C@H]1O [Compound 46],inactive,not selective,,,,,
Nc1nc(C#Cc2ccccc2)nc2c1ncn2[C@@H]1O[C@H](CO)[C@@H](O)[C@@H]1O [Compound 48],active,A3 selective,,,,,
Nc1nc(CCc2ccccc2)nc2c1ncn2[C@@H]1O[C@H](CO)[C@@H](O)[C@@H]1O [Compound 50],inactive,,,,,,
Nc1ncnc2c1nc(CCc1ccccc1)n2[C@H]1C[C@H](O)[C@@H](CO)O1 [Compound 52],inactive,,,,,,
N^6-(3-phenylpropyl)-2-chloro-2′-deoxyadenosine [Compound 28],,,,,,,"percent of inhibition, A2B AR [4]: 1 ± 1 %^a; percent of inhibition, A2A AR [5]: 14 ± 2 %^a"
"N^6-[3-(1,12-Dicarba-closo-dodecaboran-1-yl)propyl]adenosine [Compound 39]",,,0 ± 1,32 ± 1,678.4 ± 55.7,658.0 ± 46.8,"percent of inhibition, A3 AR [1]: 0 ± 12%"
"N^6-[3-(1,12-dicarba-closo-dodecaboran-1-yl)propyl]-2-chloro-2′-deoxyadenosine [Compound 27]",,,,,,,"Ki ([4]; read-out: Ki, A2B AR): 4670 nM; percent of inhibition, A3 AR [6]: 10 ± 3 %^a; percent of inhibition, A1 AR [7]: 25 ± 1 %^a; percent of inhibition, A2A AR [5]: 1 ± 1 %^a"
"N^6-[3-(1,12-dicarba-closo-dodecaboran-1-yl)propyl]-2-chloroadenosine [Compound 23]",,,,,715.3 ± 85.8,657.0 ± 67.2,"percent of inhibition, A2A AR [5]: 1 ± 1 %^a"
"N^6-[(1,12-dicarba-closo-dodecaboran-1-yl)but-4-yl]-5′-ethylcarbamoyl-adenosine [Compound 15]",,,,,698.7 ± 74.4,657.1 ± 70.7,"percent of inhibition, A2B AR [4]: 7 ± 2 %^a; activity class (active / inactive) in selectivity analysis [6]: active; receptor selectivity class [6]: A3 AR selective; Ki [6]: 437 nM; KB (antagonist mode; functional character at A3) (human A3 receptor): no antagonist; % Emax (human A3 receptor): 99%; EC50 (human A3 receptor): 1010 nM; percent of inhibition, A1 AR [7]: 40 ± 2 %^a; percent of inhibition, A2A AR [5]: 9 ± 1 %^a"
"N^6-[(1,12-dicarba-closo-dodecaboran-1-yl)but-4-yl]adenosine [Compound 7]",,,,,686.5 ± 66.1,642.8 ± 45.4,"percent of inhibition, A2B AR [4]: 1 ± 1 %^a; activity class (active / inactive) in selectivity analysis [6]: active; receptor selectivity class [6]: A3 AR selective; Ki [6]: 444 nM; KB (antagonist mode; functional character at A3) (human A3 receptor): no antagonist; % Emax (human A3 receptor): 103%; EC50 (human A3 receptor): 271 nM; percent of inhibition, A1 AR [7]: 29 ± 1 %^a; percent of inhibition, A2A AR [5]: 2 ± 1 %^a"
"N^6-[(1,12-dicarba-closo-dodecaboran-1-yl)prop-3-yl]-5′-ethylcarbamoyl adenosine [Compound 17]",,,,,646.2 ± 58.6,639.5 ± 64.7,"percent of inhibition, A2B AR [4]: 4 ± 4 %^a; percent of inhibition, A3 AR [6]: 34 ± 4 %^a; activity class (active / inactive) in selectivity analysis [6]: inactive; percent of inhibition, A1 AR [7]: 18 ± 3 %^a; percent of inhibition, A2A AR [5]: 1 ± 1 %^a"
